This note sets out measurements from US20250302983A1, “Saponin Conjugates” (priority 2018, published 2025).

In assay [1] the test system is SK-BR-3, JIMT-1, MDA-MB-468, A431, CaSki, HeLa, A2058. Briefly: control treatments, relative cell viability on various cancer cell lines (FIG. 12). It counts as cell-based, human. The following applies: wide range of concentrations toxin tested, up to 100.000 pM.
Another assay relates to HeLa cells. Briefly: HeLa cell viability assay (MTS): SO1861 + dianthin-EGF with PAMAM, PAMAM-conjugates, G4-dendron or chloroquine. The class given is cell-based, human. The following applies: positive control. The source says:
Whether or not a first proteinaceous molecule comprising saponins, either or not further comprising one or more (cleavable) linkers and/or optionally a scaffold, is able to disturb the acidic environment and […] the endosomal escape function of the at least one glycoside (saponin) can be easily determined with an assay as described in Example 3 and as known in the art. The inhibition is described as “fold amount increases of glycoside necessary to induced 50% cell killing”. […] The fold increase is to be measured in assay, essentially as described in Example 4, wherein Chloroquine, as a positive control, induces a 2-fold increase in glycoside amount, preferably saponin amount wherein the saponin is any one or more of the saponins of the invention (see Table A1, Scheme I, previous embodiments) to observe 50% cell killing.
HeLa cells were seeded in DMEM (PAN-Biotech GmbH) supplemented with 10% fetal bovine serum (PAN-Biotech GmbH) and 1% penicillin/streptomycin (PAN-Biotech GmbH), in a 96 well plate at 5,000 c/w in 100 μL/well and incubated overnight at 37° C. and 5% CO2. The next day 20× concentrated stocks of the PAMAM, PAMAM-conjugates, G4-dendron (prepared in Example 3) or chloroquine (Sigma Aldrich) samples were prepared in DMEM. […]

Regarding saporin, in assay [1], the “influence on cell viability” value was “do not or hardly have any influence on cell viability”.
On to `CCN(CC)CCCC(C)Nc1ccnc2cc(Cl)ccc12` (centres unmarked) [Chloroquine], for which, in the assay on HeLa cells, the “fold increase in glycoside (saponin) amount to observe 50% cell killing” value amounted to 2 fold.
